This is an account of results in US20250223297A1, “NOVEL RAPAMYCIN DERIVATIVES” (Novartis AG, priority 2017, published 2025).

As a reminder, the IC50 is the concentration that gives 50% inhibition. A lower IC50 goes with greater potency in that assay. Broadly, the Kd is the free concentration of one partner at which half of the binding sites on the other are occupied at equilibrium, for simple one-to-one binding. A lower Kd goes with higher affinity.

Each structure is given as a SMILES string.

The test system of experiment [1] is mTORC1 signaling (pS6 Ser240/244) in MEF TSC1−/− cells. In words: MEF TSC1-/- cell based assay for rapalog potency (pS6). Details: species or system mouse. The note with it: 2 h treatment, average from multiple assays. An excerpt:
Potency of mTOR inhibitors may also be determined using a MEF TSC1−/− cell-based assay. MEF TSC1−/− cells are Mouse Embryonic Fibroblasts deficient in the Tuberous sclerosis protein, TSC1, which negatively regulates mTORC1 signaling. Thus, the deficiency of TSC1 induces constitutive mTORC1 activation, resulting in phosphorylation (activation) of the downstream proteins in the mTORC1 signaling pathways. This cell-based assay is used to measure inhibition (de-phosphorylation) of the mTORC1 signaling components S6 and 4EBP1, by rapalogs or other mTOR inhibitors.
The assay is typically carried out as follows: MEF TSC1−/− cells are plated on Poly-D-lysine coated 384 well Griener clear bottom plates and incubated overnight at 37° C., 5% CO2. […] Cells are fixed with 4% paraformaldehyde for 30 min and washed 5 times with TBS-EDTA followed by immuno-staining with florescent tag labeled antibodies for pS6 and p4EBP1. Nuclei are visualized with Hoechst staining. Cells are imaged using respective florescence channels and the potency of mTOR inhibitors is defined by pS6 IC50 (nM).
Cell-based assay for rapalog potency determination. Rapalog potency was determined using MEF TSC1−/− cell based assay. MEF TSC1−/− cells are Mouse Embryonic Fibroblasts deficient in Tuberous sclerosis protein-TSC1, which negatively regulates mTORC1 signaling and thus display constitutive mTORC1 activation, resulting in phosphorylation (activation) of downstream molecules. This cell-based assay is used to measure inhibition (de-phosphorylation) of S6 and 4EBP1 by rapalogs or other mTOR inhibitors.
MEF TSC1−/− cells were plated on Poly-D-lysine coated 384 well Griener clear bottom plates and incubated overnight at 37° C., 5% CO2. […] Nuclei were visualized with Hoechst (ThermoFisher Scientific #H3570) staining. Cells were imaged (InCell 600) using respective fluorescence channels and the potency of mTOR inhibitors was defined by pS6 IC50 (nM).
In vitro potency of mTOR inhibitors was defined by pS6 IC50 (nM) in MEF TSC1−/− cells.
IC50 values are calculated as the average from multiple assays.

Experiment [2] addresses FKBP12 (Homo sapiens (Human), UniProt P62942). In words: SPR assay, binding affinity to FKBP12. The note with it: single-cycle kinetics. Here is the method:
(§1) SPR Assay to Determine Binding Affinity to FK506-Binding Proteins (FKBP). N-terminal avi-his6 tagged FKBP fusions to FKBP12, FKBP51 and FKBP52 were expressed in E. coli and purified using standard chromatography. Each protein was subsequently immobilized on a streptavidin chip in a Biacore 8K SPR instrument (GE Healthcare). Using single-cycle kinetics, compound titrations were flowed at 45 uL/min over each surface using 2-minute association and 30-minute dissociation phases in a buffer containing 50 mM Tris pH 7.5/150 mM NaCl/0.01% Tween 20/1 mM DTT/2% DMSO. The data was fit using low molecular weight (LMW) single-cycle kinetics. The equilibrium dissociation constants (KD) are reported. […]

The target in experiment [3] is FKBP52 (Homo sapiens (Human), UniProt Q02790). Briefly: SPR assay, binding affinity to FKBP52. Conditions: single-cycle kinetics. As for the experimental part: as §1
(SPR reads the build-up and loss of mass on a sensor chip optically.)

Experiment [4] has as its system S6K1 (Thr389) phosphorylation (mTORC1 activity) in FKBP12 knock-out 293T cells. In words: S6K1 (Thr389) phosphorylation ELISA in FKBP12 knock-out 293T cells. The class given is cell-based. The note with it: 2 h, relative to DMSO. For orientation: ELISA stands for enzyme-linked immunosorbent assay.
Experiment [5] deals with S6K1 (Thr389) phosphorylation (mTORC1 activity) in FKBP12 knock-down 293T cells. Briefly: S6K1 (Thr389) phosphorylation ELISA in FKBP12 knock-down 293T cells. Conditions: 2 h, relative to DMSO. The class given is cell-based.
Experiment [6] has as its system S6K1 (Thr389) phosphorylation (mTORC1 activity) in WT 293T cells. Briefly: S6K1 (Thr389) phosphorylation ELISA in wild-type 293T cells. The note with it: 2 h, relative to DMSO. The class given is cell-based. As for the experimental part: WT, FKBP12 knock-down and FKBP12 knock-out 293T cells were plated at a density of 30,000 cells per well in poly-D-Lysine coated 96-well plates (Corning, #354461) in Dulbecco's modified Eagle's medium (ThermoFisher, #11995-065) supplemented with 10% fetal bovine serum (ThermoFisher, #16140-071). Cells were incubated at 37° C., 5% CO2 for 48 hours until they reached ˜80% confluence. […] Media supplemented with blank Dimethyl sulfoxide (DMSO) was used as a control for both compounds. Phosphorylated amounts of S6K1 (Thr389) were detected by a sandwich ELISA kit (Cell signaling, #7063C) following the manufacture's protocol.
S6K1 is a downstream target of mTORC1 and phosphorylation of its rapalog-sensitive Thr389 site is used as a functional readout of mTORC1 activity. Lee, C. H., Inoki, K. and Guan, K. L. (2007). mTOR pathway as a target in […]. Annu. Rev. Pharmacol. Toxicol. 47. 443-467. […] In FKBP12 knock-out cells. […] Such specificity of Example 2 to FKBP12 may facilitate targeting cells and tissues with relatively high levels of FKBP12 expression, while avoiding (or minimizing) side effects in the tissues where FKBP12 is weakly expressed.

Sequence of FKBP52 (Q02790 whole entry): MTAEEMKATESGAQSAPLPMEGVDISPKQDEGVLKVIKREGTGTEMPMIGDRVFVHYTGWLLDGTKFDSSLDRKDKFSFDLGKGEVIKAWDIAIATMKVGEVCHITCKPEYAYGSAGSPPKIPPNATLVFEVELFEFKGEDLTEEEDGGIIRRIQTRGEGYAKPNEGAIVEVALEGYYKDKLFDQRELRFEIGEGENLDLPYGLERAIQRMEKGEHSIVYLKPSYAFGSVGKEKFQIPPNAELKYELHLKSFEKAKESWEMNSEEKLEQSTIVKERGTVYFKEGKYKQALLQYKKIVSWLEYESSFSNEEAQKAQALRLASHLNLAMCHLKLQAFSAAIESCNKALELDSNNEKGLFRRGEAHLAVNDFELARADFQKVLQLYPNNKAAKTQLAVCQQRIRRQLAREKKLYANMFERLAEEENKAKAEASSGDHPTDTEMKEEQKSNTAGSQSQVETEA
Sequence of FKBP12 (P62942 whole entry, the tested form may be a part): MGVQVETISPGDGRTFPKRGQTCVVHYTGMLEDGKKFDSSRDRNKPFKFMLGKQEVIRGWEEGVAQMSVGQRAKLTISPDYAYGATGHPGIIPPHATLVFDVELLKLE

In the case of `CO[C@@H]1C[C@H](C[C@@H](C)[C@@H]2CC[C@H](C)/C=C(\C)[C@@H](O)[C@@H](OC)C(=O)[C@H](C)C[C@H](C)/C=C/C=C/C=C(\C)C(N3CCN(CCO)C3=O)C[C@@H]3CC[C@@H](C)[C@@](O)(O3)C(=O)C(=O)N3CCCC[C@H]3C(=O)O2)CC[C@H]1O` (single isomer, unassigned) [Example 5], it took 153 nM to reach half-maximal inhibition in experiment [1] (Mus musculus, 2 h) (IC50).
Same read-out and setting: to `CO[C@@H]1C[C@H](C[C@@H](C)[C@@H]2CC[C@H](C)/C=C(\C)[C@@H](O)[C@@H](OC)C(=O)[C@H](C)C[C@H](C)/C=C/C=C/C=C(\C)C(N3CCS3(=O)=O)C[C@@H]3CC[C@@H](C)[C@@](O)(O3)C(=O)C(=O)N3CCCC[C@H]3C(=O)O2)CC[C@H]1O` (single isomer, unassigned) [Example 6, C16-(1,1-dioxido-1,2-thiazetidin-2-yl)-C32-deoxo-rapamycin] belongs 0.17 nM.
In turn, `CO[C@@H]1C[C@H](C[C@@H](C)[C@@H]2CC[C@H](C)/C=C(\C)[C@@H](O)[C@@H](OC)C(=O)[C@H](C)C[C@H](C)/C=C/C=C/C=C(\C)C(N3CCS3(=O)=O)C[C@@H]3CC[C@@H](C)[C@@](O)(O3)C(=O)C(=O)N3CCCC[C@H]3C(=O)O2)CC[C@H]1O` (single isomer, unassigned) [Example 7, C16-(1,1-dioxido-1,2-thiazetidin-2-yl)-C32-deoxo-rapamycin] gave an IC50 in experiment [1] of 0.3 nM. This lies in the sub-nanomolar range.
The same measure, in the same setting: in the case of `CO[C@@H]1C[C@H](C[C@@H](C)[C@@H]2CC[C@H](C)/C=C(\C)[C@@H](O)[C@@H](OC)C(=O)[C@H](C)C[C@H](C)/C=C/C=C/C=C(\C)C(N3CCS3(=O)=O)C[C@@H]3CC[C@@H](C)[C@@](O)(O3)C(=O)C(=O)N3CCCC[C@H]3C(=O)O2)CC[C@H]1OCCO` (single isomer, unassigned) [Example 8, C16-(1,1-dioxido-1,2-thiazetidin-2-yl)-C32-deoxo-C40-(2-hydroxyethoxy)-rapamycin] it was 0.328 nM; in that of `CO[C@@H]1C[C@H](C[C@@H](C)[C@@H]2CC[C@H](C)/C=C(\C)[C@@H](O)[C@@H](OC)C(=O)[C@H](C)C[C@H](C)/C=C/C=C/C=C(\C)C(N3CCS3(=O)=O)C[C@@H]3CC[C@@H](C)[C@@](O)(O3)C(=O)C(=O)N3CCCC[C@H]3C(=O)O2)CC[C@H]1OCCO` (single isomer, unassigned) [Example 9, C16-(1,1-dioxido-1,2-thiazetidin-2-yl)-C32-deoxo-C40-(2-hydroxyethoxy)-rapamycin], 1.45 nM.
`CO[C@@H]1C[C@H](C[C@@H](C)[C@@H]2CC[C@H](C)/C=C(\C)[C@@H](O)[C@@H](OC)C(=O)[C@H](C)C[C@H](C)/C=C/C=C/C=C(\C)C(N3CCS3(=O)=O)C[C@@H]3CC[C@@H](C)[C@@](O)(O3)C(=O)C(=O)N3CCCC[C@H]3C(=O)O2)CC[C@H]1OP(C)(C)=O` (single isomer, unassigned) [Example 10, C16-(1,1-dioxido-1,2-thiazetidin-2-yl)-C32-deoxo-C40-dimethylphosphinyl-rapamycin]: the Kd turned out to be 1.6 nM in experiment [2] and 176 nM in experiment [3].
With `CO[C@@H]1C[C@H](C[C@@H](C)[C@@H]2CC[C@H](C)/C=C(\C)[C@@H](O)[C@@H](OC)C(=O)[C@H](C)C[C@H](C)/C=C/C=C/C=C(\C)C(N3CCS3(=O)=O)C[C@@H]3CC[C@@H](C)[C@@](O)(O3)C(=O)C(=O)N3CCCC[C@H]3C(=O)O2)CC[C@@H]1n1cnnn1` (single isomer, unassigned) [Example 12], the IC50 in experiment [1] (Mus musculus, 2 h) turned out to be 0.374 nM. This counts as sub-nanomolar.
Turning to `CO[C@@H]1C[C@H](C[C@@H](C)[C@@H]2CC[C@H](C)/C=C(\C)[C@@H](O)[C@@H](OC)C(=O)[C@H](C)C[C@H](C)/C=C/C=C/C=C(\C)C(N3CCS3(=O)=O)C[C@@H]3CC[C@@H](C)[C@@](O)(O3)C(=O)C(=O)N3CCCC[C@H]3C(=O)O2)CC[C@@H]1n1cnnn1` (single isomer, unassigned) [Example 13], the IC50 in experiment [1] was determined as 0.656 nM.
Molecule `CO[C@@H]1C[C@H](C[C@@H](C)[C@@H]2CC[C@H](C)/C=C(\C)[C@@H](O)[C@@H](OC)C(=O)[C@H](C)C[C@H](C)/C=C/C=C/C=C(\C)C(N3CCCS3(=O)=O)C[C@@H]3CC[C@@H](C)[C@@](O)(O3)C(=O)C(=O)N3CCCC[C@H]3C(=O)O2)CC[C@H]1OP(C)(C)=O` (single isomer, unassigned) [Example 14, C16-(1,1-dioxidoisothiazolidin-2-yl)-C32-deoxo-C40-dimethylphosphinyl-rapamycin] showed an IC50 in experiment [1] (Mus musculus, 2 h) of 7.77 nM. Moreover, the Kd in experiment [2] amounted to 16 nM; in experiment [3], 542 nM.
`CO[C@@H]1C[C@H](C[C@@H](C)[C@@H]2CC[C@H](C)/C=C(\C)[C@@H](O)[C@@H](OC)C(=O)[C@H](C)C[C@H](C)/C=C/C=C/C=C(\C)C(N3CCCS3(=O)=O)C[C@@H]3CC[C@@H](C)[C@@](O)(O3)C(=O)C(=O)N3CCCC[C@H]3C(=O)O2)CC[C@H]1OP(C)(C)=O` (single isomer, unassigned) [Example 15, C16-(1,1-dioxidoisothiazolidin-2-yl)-C32-deoxo-C40-dimethylphosphinyl-rapamycin]: the midpoint of inhibition in experiment [1] (Mus musculus, 2 h), the IC50, lay at 3.2 nM.
For the molecule `CO[C@@H]1C[C@H](C[C@@H](C)[C@@H]2CC[C@H](C)/C=C(\C)[C@@H](O)[C@@H](OC)C(=O)[C@H](C)C[C@H](C)/C=C/C=C/C=C(\C)[C@H](N3CCCS3(=O)=O)C[C@@H]3CC[C@@H](C)[C@@](O)(O3)C(=O)C(=O)N3CCCC[C@H]3C(=O)O2)CC[C@H]1OCCO` [Example 16], the Kd in experiment [2] was found to be 35 nM; in experiment [3] it was 4070 nM.
Regarding `CO[C@H]1C[C@@H]2CC[C@@H](C)[C@@](O)(O2)C(=O)C(=O)N2CCCC[C@H]2C(=O)O[C@H]([C@H](C)C[C@@H]2CC[C@@H](OCCO)[C@H](OC)C2)CC(=O)[C@H](C)/C=C(\C)[C@@H](O)[C@@H](OC)C(=O)[C@H](C)C[C@H](C)/C=C/C=C/C=C/1C` [RAD001, everolimus, reference compound], the “inhibition of S6K1 (Thr389) phosphorylation” value in experiment [4] is above 60%. In addition, the values for the Kd in experiment [2] and in experiment [3] were 500 nM and 1760 nM, respectively. Besides, in experiment [5], the “maximum inhibition of S6K1 (Thr389)” value is on record as around 70%. Moreover, the “inhibition of S6K1 (Thr389)” value in experiment [6] is recorded as around 80%.
